These results are taken from patent EP2832344A1, “COMPOSITION, AND EXTERNAL PREPARATION FOR THE SKIN OR FUNCTIONAL FOOD EACH CONTAINING SAID COMPOSITION” (FUJI-FILM Corporation, priority 2012, dated 2013).

In general, amount remaining refers to the share of the starting amount still present when the sample was taken.

A short description of data set [1]: Storage stability of hydroxystilbenes (residual amount by HPLC). Type of data set: physicochemical. To be noted: for remaining at 1032 h: pH 8, left 43 days at room temperature, sample with PEG-60 hydrogenated castor oil in citric acid buffer solution, HPLC. Here is the method: Various hydroxystilbenes shown in the following Table 1 were dissolved in ethanol, thereby preparing a 1% solution. The solution was stirred together with PEG-60 hydrogenated castor oil which was in an amount 10 times the amount of the solution with respect to 1 part of the ethanol solution. Thereafter, the resultant was diluted by 100-fold with a citric acid buffer solution, thereby preparing a sample.
pH of the sample prepared as above was regulated to be 8, and the sample was left as is for a month and a half (43 days) at room temperature. Thereafter, by means of HPLC, a residual amount of various hydroxystilbenes in each sample was determined. Analysis conditions for HPLC are as follows.
• Column: C18 5 µm, 4.6 mm x 250 mm • Flow rate: 1 ml/min • Column temperature: 40°C • Detection wavelength: 310 nm • Developing solution: acetonitrile/water = 20/80 (volume ratio, containing 0.1% by volume of acetic acid and 0.1% by volume of triethanolamine) [Table 1]

The next data set relates to NF-κB. Nature of the data set: NF-κB intranuclear transition in UVB-irradiated dermal fibroblasts (Western blotting). Type of data set: cell-based. Conditions: Homo sapiens, light or radiation study; HDF cells, UVB (20 mJ) irradiated, 6 hours; pterostilbene 5 ppm, no carotenoid; not irradiated = 100 %, irradiated without additive = 684%; read-out: Ratio of amount of NF-κB moving into nucleus. The text has this: NFκB is considered to be involved in skin aging at an early stage. Therefore, an NFκB intranuclear transition inhibition rate of carotenoid and pterostilbene was examined.
Normal human dermal fibroblasts (HDF cells, KURABO INDUSTRIES LTD.) were subcultured three times according to a common method, in a GlutaMax medium (D-MEM, Gibco) supplemented with 10% fetal bovine serum (FBS, Gibco). The subcultured HDF cells were caused to adhere to a container at 1,000,000 cells/25 cm^2 and put in a serum starvation state for a day. Thereafter, the HDF cells were washed with phosphate buffered saline (PBS).
The cells were irradiated with UVB (20 mJ) emitted from right above the cells, and then the medium was replaced with a medium obtained by adding 0.1% FBS to D-MEM containing the carotenoid and the pterostilbene shown in Tables 6 and 7.
6 hours after the replacement of the medium, nuclei were extracted using NucBuster (Novagen), and the amount of NF-κB moved into the nuclei was determined by Western blotting (WB) (primary antibody: NF-κB p65 Rabbit Monoclonal Antibody (Cat. #1546-1), EPITOMICS).
Moreover, in Experiment 1 and Experiment 7, for comparison, the cells were not irradiated with UVB.
(In general: In western blotting, separated proteins are transferred to a membrane and probed.)

`COc1cc(/C=C/c2cc(O)cc(O)c2)ccc1O` [(E)-3,4',5-trihydroxy-3'-methoxystilbene] showed a share remaining at 1032 h in data set [1] of 46%. `Oc1cc(O)cc(/C=C/c2ccc(O)c(O)c2)c1` [Piceatannol] displayed an amount remaining at 1032 h in data set [1] of 26%. Turning to `COc1cc(/C=C/c2ccc(O)cc2)cc(OC)c1` [Pterostilbene, trans-1-(3,5-Diemthoxyphenyl)-2-(4-hydroxyphenyl)ethylene], in the data set with NF-κB, the activity at 5 ppm came to 420%. For the same molecule, the fraction remaining at 1032 h in data set [1] stood at 99%.

As for `Oc1ccc(C=Cc2cc(O)cc(O)c2)cc1` [Resveratrol], the fraction remaining at 1032 h in data set [1] is 54%.

In the case of `O=C(O)C1OC(Oc2ccc(C=Cc3cc(O)cc(O)c3)cc2)C(O)C(O)C1O` [trans-resveratol 4'-O-beta-D-glucuronide], the “Residual amount (%)” value in data set [1] (citric acid buffer, 1032 h, pH 8) is reported as 73%.
